Source: patent US8222260B2, “Substituted 6-anilinopurine derivatives as inhibitors of cytokinin oxidase/dehydrogenase and preparations containing these derivatives” (Univerzita Palackego V Olomouci, priority 2007, dated 2012)
Entries after “also recorded” stand apart in the source; their conditions may differ. One block for each compound: values may come before it.

What was measured:
[1] = system: Human diploid fibroblasts BJ; test: Attachment frequency test (adherence of fibroblasts); format: cell-based; details: 0-25 μM, attached cells counted after 6 hours, BJ passage 19
Procedure: Attachment frequency test is one of the methods for evaluation of acute toxicity of compounds against adherent cells. The tested compound is added into the medium with a defined number of trypsinised cells and after certain time the number of attached cells is counted. Human diploid fibroblasts BJ (passage 19) and standard cultivation medium (DMEM with 5 g/l glucose, 2 mM glutamin, 100 U/ml penicillin, 100 μg/ml streptomycin and 10% fetal calf serum) were used. The attached cells were counted after 6 hours. The experiment was done in three repetitions. […] Thus the compound doesn't show acute toxicity against fibroblasts.

[2] = system: Human diploid fibroblasts SNF25; test: In vitro toxicity by evaluation of growth curve; format: cell-based; details: 0-12.5 μM, 12 days, SNF25 passage 27
Procedure: (§1) Human diploid fibroblasts SNF25 (passage 27) were seeded in 24-well plate (10.000 cells/well). The cultivation medium (DMEM containing 5 g/l glucose, 2 mM glutamin, 100 U/ml penicillin, 100 μg/ml streptomycin and 10% fetal calf serum) was removed and replaced with the cultivation medium containing the tested compound in concentration range of 0-12.5 μM. Each concentration was tested in triplicate. The cell number was counted during next 12 days.

[3] = system: Senescent human diploid fibroblasts SNF25; test: Effect on senescent human diploid fibroblasts (cell number); format: cell-based; details: 0-12.5 μM, days 7 and 14, SNF25 passage 53
Procedure: as §1, with “Senescent human” for “Human”, “53)” for “27)”, “[…]” for “μg/ml”, “test” for “the tested”, “numbers were determined on days 7 and 14.” for “number was counted during next 12 days.”

[4] = system: Human diploid fibroblasts BJ; test: Viability of human diploid fibroblasts by MTT assay; format: cell-based; details: 0-25 μM, 72 hours, BJ passage 19
Procedure: MTT is a standard colorimetric assay for measurement of proliferation and survival of the cells. Yellow MTT is reduced into violet formazan in metabolically active cells. The amount of the resulting formazan is measured by spectrophotometry. Human diploid fibroblasts BJ (passage 19) were seeded in 96-well plate (5.000 cells per well). After 6 hours, the cultivation medium (DMEM containing 5 g/l glucose, 2 mM glutamine, 100 U/ml penicillin, 100 μg/ml streptomycin and 10% fetal calf serum) was removed and fresh medium containing a test compound in concentrations 0-25 μM was added. Each concentration was tested in 5 replicates. MTT was added to the cells after 72 hours into final concentration of 0.5 mg/ml. Incubation time was 3 hours.

[5] = system: CKX1 overproducing Arabidopsis seedlings; test: CKX1 overproducing Arabidopsis seedlings grown in vitro on MS medium, phenotype reversion; format: in vivo; details: in vitro on MS medium containing 0.1 μM compound
[6] = system: Transgenic 35S:AtCKX1 Arabidopsis seedlings; test: Foliar spray of CKX overproducing Arabidopsis seedlings grown in soil, phenotype complementation; format: in vivo; details: 10 μM sprayed every second day for 1 month
Procedure: (§2) Transgenic 35S:AtCKX1 Arabidopsis and 35S:AtCKX1 and 35S:AtCKX2 tobacco seedlings grown in soil in the greenhouse were systematically treated with 10 μM of compound 12. Areal parts of the wild type and transgenic seedlings were sprayed every second day for 1 month with aqueous solution of compound 12 containing 0.01% Silwet L-77 wetting agent.

[7] = system: WT Arabidopsis plants; test: Prolonged treatment of WT Arabidopsis plants, flowering; format: in vivo
Procedure: as §2
Flowers had aborted anthers and were sterile.

[8] = system: 35S:AtCKX1 and 35S:AtCKX2 tobacco seedlings; test: Foliar spray of CKX overproducing tobacco seedlings grown in soil, phenotype complementation and root system; format: in vivo
Procedure: as §2

[9] = system: Rat C6 glioma (ATCC No. CCL107); test: Anti-inflammatory activity: isoproterenol-induced cAMP synthesis (ELISA); format: cell-based; details: cAMP after 30 min, induced by (−)-isoproterenol
Procedure: Anti-inflammatory activity of several of the substituted 6-anilinopurine derivatives of this invention was determined; kinetin was also evaluated as a control. Rat C6 glioma (ATCC No. CCL107) was cultivated in monolayer in serum-free chemically defined medium containing Ham's F10/minimal essential medium (1:1 v/v), 2 mM L-glutamine, 1% (v/v) minimal essential medium vitamins (100×), 1% (v/v) minimal essential medium nonessential amino acids (100×), 100 U/ml penicillin, […], and 30 nM sodium selenite. Incubation was performed at 37° C. in a 100% humidified atmosphere. The assays were performed in the logarithmic growth phase at a density of 2.5×10^5 cells/cm^2. Intracellular cAMP synthesis was induced by addition of 5 mM (−)-isoproterenol; various amounts of test compounds were added at the same time as the (−)-isoproterenol. After 30 min incubation, the cellular amount of cAMP was determined using ELISA (cAMP-enzyme immunoassay kit from Amersham). The I50 values were determined from the dose-response curve in duplicate.

[10] = system: Human diploid fibroblasts HCA; test: Anti-aging activity: senescence-associated beta-galactosidase in human fibroblasts; format: cell-based
Procedure: In this example, effects of the compounds of this invention on the activity of a senescence biomarker senescence-associated β-galactosidase was studied. Human diploid fibroblasts HCA of various passage levels were used for this purpose. The tested compounds were added to the medium at each passage. After the incubation period, cells were washed with PBS and fixed with 2% formaldehyde and 0.2% glutaraldehyde in PBS. After another wash with PBS, they were incubated with the staining solution comprising potassium ferricyanide (5 mM), potassium ferrocyanide (5 mM), MgCl2 (2 mM), X-gal (5-bromo-4-chloro-3-indolyl-β-D-galactopyranoside) (1 mg/ml), in citric/phosphate buffer (pH 6.0) at 37° C. (without CO2) for at least 1 hour. Following the incubation period, the numbers of cells expressing senescence-associated β-galactosidase (blue cells) were counted using light microscope.

- Attachment percentage [1]: not significantly influenced
SMILES: Clc1nc(Nc2ccccc2)c2[nH]cnc2n1 [Compound 1, 2-Chloro-6-anilinopurine]
- growth curve (cell number) [2]: not toxic against human diploid fibroblasts
- cell number (cell survival) [3]: does not exert significant negative effect on cell survival
- viability of cells (MTT) [4]: not toxic for human diploid fibroblasts

SMILES: COc1cccc(Nc2nc(Cl)nc3nc[nH]c23)c1 [Compound 12, 2-Chloro-6-(3-methoxyanilino)purine]
- reversion of WT phenotype [5]: reversion of WT phenotype appeared
- complementation of wild-type phenotype (release from growth inhibition) [6]: restauration of wild type phenotype
- effect on flowering [7]: altered development of flowers and inhibition of fertilisation
- complementation of wild-type phenotype (release from growth inhibition) ([8]; 35S:AtCKX1 and 35S:AtCKX2 tobacco, 10 μM sprayed every second day for 1 month): restauration of wild type phenotype
- effect of foliar application on root system ([8]; transgenic tobaccos, foliar application, 10 μM): enhancement of the root system

SMILES: c1coc(CNc2ncnc3nc[nH]c23)c1 [Kinetin, 6-furfurylaminopurine, reference compound]
- Effect (anti-inflammatory activity) [9]: inactive; also recorded: Not active
- Senescent Cells (%) HCA passage 25 ([10]; passage 25, cells expressing senescence-associated beta-galactosidase): 3%
- Senescent Cells (%) HCA passage 50 ([10]; passage 50, cells expressing senescence-associated beta-galactosidase): 5%
- Senescent Cells (%) HCA passage 80 ([10]; passage 80, cells expressing senescence-associated beta-galactosidase): 38%
